Assays:
Assay type in all cases: in vivo
Spodoptera litura = assay: Pesticidal test against Spodoptera litura (cabbage leaf dip); conditions: foliar, 144 h, concentration 1 ppm, 2-stage larvae, examined after 6 days, 25° C., read-out: pesticidal rate
Procedure, shortened: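 Cabbage leaf pieces dipped 30 seconds in compound solution at a predetermined concentration and air-dried, then offered to second-stage larvae, five per group in two replicates. Held at 25° C. Living and dead larvae counted after 6 days.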

Musca domestica = assay: Pesticidal test against Musca domestica (petri dish dry film); conditions: 24 h, concentration 100 ppm, female adults, examined after 1 day, 25° C., read-out: pesticidal rate
Method: Pesticidal Test against Musca domestica
1 ml of an acetone solution in which a test compound had been prepared at a predetermined concentration was added dropwise to a petri dish having a diameter of 9 cm, and air-dried, and then the female adults of Musca domestica were released and the petri dish was capped. They were left to stand in a thermostatic chamber at 25° C., and the numbers of the living pests and the dead pests were examined after 1 day. The test was carried out with five larvae per group in two replicates.

Plutella xylostella = assay: Pesticidal test against Plutella xylostella (cabbage leaf dip); conditions: foliar, 144 h, concentration 1 ppm, 2-stage larvae, examined after 6 days, 25° C., read-out: pesticidal rate
Procedure, shortened: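 Second-stage larvae (5 per group, two replicates) were released onto air-dried cabbage leaf discs that had been immersed for 30 seconds in compound solution at a set concentration. Mortality was scored after 6 days at 25° C.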

Helicoverpa armigera = assay: Pesticidal test against Helicoverpa armigera (cabbage leaf disk dip); conditions: foliar, 72 h, concentration 1 ppm, 2-stage larvae, examined after 3 days, 25° C., read-out: pesticidal rate
Method: Pesticidal Test against Helicoverpa armigera A cabbage leaf disk was immersed for 30 seconds in a chemical solution in which a test compound had been prepared at a predetermined concentration, and air-dried. The leaf disk was put into a 6-hole plastic cup having a filter paper laid on the bottom thereof, and 2-stage larvae of Helicoverpa armigera were released with one insect being released per hole. They were left to stand in a thermostatic chamber at 25° C., and the numbers of the living pests and the dead pests were examined after 3 days. The test was carried out with five larvae per group in two replicates. Further, the above compound (A) was used as a comparative compound.

Adoxophyes honmai = assay: Pesticidal test against Adoxophyes honmai (artificial feed dip); conditions: 144 h, 2-stage larvae, examined after 6 days, 25° C., read-out: pesticidal rate; for pest or weed control at 1 ppm: concentration 1 ppm
Method: (§1) Pesticidal Test against Adoxophyes honmai A thinly sliced artificial feed was immersed for 30 seconds in a chemical solution in which a test compound had been prepared at a predetermined concentration, and air-dried, and then put into a 7 cm polyethylene cup having a filter paper laid on the bottom thereof, and 2-stage larvae of Adoxophyes honmai were released. They were left to stand in a thermostatic chamber at 25° C., and the numbers of the living pests and the dead pests were examined after 6 days. The test was carried out with five larvae per group in two replicates. Further, the above compound (A) was used as a comparative compound.

Laodelphax striatellus = assay: Pesticidal test against Laodelphax striatellus (rice seedling spray); conditions: 144 h, concentration 100 ppm, 3-stage larvae, examined after 6 days, 25° C., read-out: pesticidal rate
Procedure, shortened: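 Rice seedlings sprayed with 2.5 ml acetone solution of compound at a predetermined concentration, air-dried, then infested with third-stage Laodelphax striatellus larvae in capped water-containing tubes at 25 °C. Living and dead insects counted after 6 days; ten larvae per group, two replicates.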

Choristoneura magnanima = assay: Pesticidal test against Choristoneura magnanima (artificial feed dip); conditions: 144 h, 2-stage larvae, examined after 6 days, 25° C., read-out: pesticidal rate; for pest or weed control at 1 ppm: concentration 1 ppm
Method: as §1, with “Choristoneura magnanima” for “Adoxophyes honmai”

O=C(Nc1cccc(C(=O)Nc2c(Br)cc(C(F)(C(F)(F)F)C(F)(F)C(F)(F)F)cc2C(F)(F)F)c1)c1cccc(F)c1 (centres unmarked) [6-348]
≥ 70%: pest or weed control at 1 ppm (Spodoptera litura) | pest or weed control at 100 ppm (Musca domestica) | pest or weed control at 1 ppm (Plutella xylostella) | pest or weed control at 1 ppm (Helicoverpa armigera) | pest or weed control at 1 ppm (Adoxophyes honmai)

O=C(Nc1c(I)cc(C(F)(C(F)(F)F)C(F)(F)F)cc1C(F)(F)F)c1cccc(NC(=O)c2ccc(F)cc2Cl)c1 [6-449]
≥ 70%: pest or weed control at 1 ppm (Spodoptera litura) | pest or weed control at 1 ppm (Plutella xylostella) | pest or weed control at 1 ppm (Helicoverpa armigera) | pest or weed control at 1 ppm (Adoxophyes honmai)

O=C(Nc1cccc(C(=O)Nc2c(I)cc(C(F)(C(F)(F)F)C(F)(F)C(F)(F)F)cc2C(F)(F)F)c1)c1cccc(F)c1 (centres unmarked) [6-504]
≥ 70%: pest or weed control at 1 ppm (Spodoptera litura) | pest or weed control at 100 ppm (Musca domestica) | pest or weed control at 1 ppm (Plutella xylostella) | pest or weed control at 1 ppm (Helicoverpa armigera) | pest or weed control at 1 ppm (Adoxophyes honmai)

O=C(Nc1cccc(C(=O)Nc2c(I)cc(C(F)(C(F)(F)F)C(F)(F)C(F)(F)F)cc2C(F)(F)F)c1)c1ccc(F)cc1 (centres unmarked) [6-505]
≥ 70%: pest or weed control at 1 ppm (Spodoptera litura) | pest or weed control at 100 ppm (Musca domestica) | pest or weed control at 1 ppm (Plutella xylostella) | pest or weed control at 1 ppm (Helicoverpa armigera) | pest or weed control at 1 ppm (Adoxophyes honmai)

N#Cc1cccc(C(=O)Nc2cccc(C(=O)Nc3c(I)cc(C(F)(C(F)(F)F)C(F)(F)C(F)(F)F)cc3C(F)(F)F)c2)c1 (centres unmarked) [6-522]
≥ 70%: pest or weed control at 1 ppm (Spodoptera litura) | pest or weed control at 100 ppm (Musca domestica) | pest or weed control at 1 ppm (Plutella xylostella) | pest or weed control at 1 ppm (Helicoverpa armigera) | pest or weed control at 1 ppm (Adoxophyes honmai)

N#Cc1ccc(C(=O)Nc2cccc(C(=O)Nc3c(I)cc(C(F)(C(F)(F)F)C(F)(F)C(F)(F)F)cc3C(F)(F)F)c2)cc1 (centres unmarked) [6-523]
≥ 70%: pest or weed control at 1 ppm (Spodoptera litura) | pest or weed control at 100 ppm (Musca domestica) | pest or weed control at 1 ppm (Plutella xylostella) | pest or weed control at 1 ppm (Helicoverpa armigera) | pest or weed control at 10 ppm (Adoxophyes honmai; concentration 10 ppm)

O=C(Nc1c(I)cc(C(F)(C(F)(F)F)C(F)(F)C(F)(F)F)cc1C(F)(F)F)c1cccc(NC(=O)c2c(F)cccc2F)c1 (centres unmarked) [6-524]
≥ 70%: pest or weed control at 1 ppm (Spodoptera litura) | pest or weed control at 100 ppm (Musca domestica) | pest or weed control at 1 ppm (Plutella xylostella) | pest or weed control at 1 ppm (Helicoverpa armigera) | pest or weed control at 1 ppm (Adoxophyes honmai)

N#Cc1cccc(C(=O)Nc2cccc(C(=O)Nc3c(Br)cc(C(F)(C(F)(F)F)C(F)(F)C(F)(F)F)cc3Br)c2F)c1 (centres unmarked) [6-1202]
≥ 70%: pest or weed control at 1 ppm (Spodoptera litura) | pest or weed control at 100 ppm (Laodelphax striatellus) | pest or weed control at 1 ppm (Plutella xylostella) | pest or weed control at 1 ppm (Adoxophyes honmai)

O=C(Nc1cccc(C(=O)Nc2c(I)cc(C(F)(C(F)(F)F)C(F)(F)F)cc2I)c1F)c1cccc(F)c1 [6-1262]
≥ 70%: pest or weed control at 1 ppm (Spodoptera litura) | pest or weed control at 100 ppm (Laodelphax striatellus) | pest or weed control at 1 ppm (Plutella xylostella) | pest or weed control at 1 ppm (Helicoverpa armigera) | pest or weed control at 1 ppm (Adoxophyes honmai)

N#Cc1ccc(C(=O)Nc2cccc(C(=O)Nc3c(I)cc(C(F)(C(F)(F)F)C(F)(F)F)cc3I)c2F)cc1 [6-1281]
≥ 70%: pest or weed control at 1 ppm (Spodoptera litura) | pest or weed control at 100 ppm (Laodelphax striatellus) | pest or weed control at 100 ppm (Musca domestica) | pest or weed control at 1 ppm (Plutella xylostella) | pest or weed control at 1 ppm (Helicoverpa armigera)

O=C(Nc1cccc(C(=O)Nc2c(I)cc(C(F)(C(F)(F)F)C(F)(F)C(F)(F)F)cc2I)c1F)c1ccc(F)cc1 (centres unmarked) [6-1341]
≥ 70%: pest or weed control at 1 ppm (Spodoptera litura) | pest or weed control at 100 ppm (Laodelphax striatellus) | pest or weed control at 100 ppm (Musca domestica) | pest or weed control at 1 ppm (Plutella xylostella) | pest or weed control at 1 ppm (Helicoverpa armigera) | pest or weed control at 1 ppm (Adoxophyes honmai)

O=C(Nc1cccc(C(=O)Nc2c(Br)cc(C(F)(C(F)(F)F)C(F)(F)C(F)(F)F)cc2C(F)(F)F)c1F)c1cccnc1Cl (centres unmarked) [6-1688]
≥ 70%: pest or weed control at 1 ppm (Spodoptera litura) | pest or weed control at 100 ppm (Laodelphax striatellus) | pest or weed control at 1 ppm (Plutella xylostella) | pest or weed control at 1 ppm (Adoxophyes honmai)

O=C(Nc1cccc(C(=O)Nc2c(I)cc(C(F)(C(F)(F)F)C(F)(F)C(F)(F)F)cc2C(F)(F)F)c1F)c1ccccc1 (centres unmarked) [6-1808]
≥ 70%: pest or weed control at 1 ppm (Spodoptera litura) | pest or weed control at 100 ppm (Laodelphax striatellus) | pest or weed control at 100 ppm (Musca domestica) | pest or weed control at 1 ppm (Plutella xylostella) | pest or weed control at 1 ppm (Helicoverpa armigera)

CN(C(=O)c1cccc(F)c1)c1cccc(C(=O)Nc2c(I)cc(C(F)(C(F)(F)F)C(F)(F)C(F)(F)F)cc2C(F)(F)F)c1 (centres unmarked) [7-504]
≥ 70%: pest or weed control at 1 ppm (Choristoneura magnanima) | pest or weed control at 1 ppm (Spodoptera litura) | pest or weed control at 100 ppm (Musca domestica) | pest or weed control at 1 ppm (Plutella xylostella)

CN(C(=O)c1cccc(C#N)c1)c1cccc(C(=O)Nc2c(I)cc(C(F)(C(F)(F)F)C(F)(F)C(F)(F)F)cc2C(F)(F)F)c1 (centres unmarked) [7-522]
≥ 70%: pest or weed control at 1 ppm (Spodoptera litura) | pest or weed control at 100 ppm (Musca domestica) | pest or weed control at 1 ppm (Plutella xylostella) | pest or weed control at 1 ppm (Helicoverpa armigera) | pest or weed control at 1 ppm (Adoxophyes honmai)

CN(C(=O)c1cccc(C#N)c1)c1cccc(C(=O)Nc2c(Br)cc(C(F)(C(F)(F)F)C(F)(F)C(F)(F)F)cc2Br)c1F (centres unmarked) [7-1202]
≥ 70%: pest or weed control at 1 ppm (Spodoptera litura) | pest or weed control at 100 ppm (Laodelphax striatellus) | pest or weed control at 1 ppm (Plutella xylostella) | pest or weed control at 1 ppm (Adoxophyes honmai)

CN(C(=O)c1ccc(C#N)cc1)c1cccc(C(=O)Nc2c(I)cc(C(F)(C(F)(F)F)C(F)(F)F)cc2I)c1F [7-1281]
≥ 70%: pest or weed control at 1 ppm (Choristoneura magnanima) | pest or weed control at 1 ppm (Spodoptera litura) | pest or weed control at 100 ppm (Laodelphax striatellus) | pest or weed control at 1 ppm (Plutella xylostella)

CN(C(=O)c1ccccc1)c1cccc(C(=O)Nc2c(I)cc(C(F)(C(F)(F)F)C(F)(F)C(F)(F)F)cc2I)c1F (centres unmarked) [7-1338]
≥ 70%: pest or weed control at 1 ppm (Spodoptera litura) | pest or weed control at 100 ppm (Laodelphax striatellus) | pest or weed control at 100 ppm (Musca domestica) | pest or weed control at 1 ppm (Plutella xylostella) | pest or weed control at 1 ppm (Helicoverpa armigera) | pest or weed control at 1 ppm (Adoxophyes honmai)

CN(C(=O)c1ccc(C#N)cc1F)c1cccc(C(=O)Nc2c(Br)cc(C(F)(C(F)(F)F)C(F)(F)F)cc2C(F)(F)F)c1F [7-1606]
≥ 70%: pest or weed control at 10 ppm (Choristoneura magnanima; concentration 10 ppm) | pest or weed control at 1 ppm (Spodoptera litura) | pest or weed control at 100 ppm (Laodelphax striatellus) | pest or weed control at 1 ppm (Plutella xylostella) | pest or weed control at 1 ppm (Helicoverpa armigera)

CN(C(=O)c1ccc(C#N)cc1)c1cccc(C(=O)Nc2c(I)cc(C(F)(C(F)(F)F)C(F)(F)F)cc2C(F)(F)F)c1F [7-1751]
≥ 70%: pest or weed control at 1 ppm (Spodoptera litura) | pest or weed control at 100 ppm (Laodelphax striatellus) | pest or weed control at 1 ppm (Plutella xylostella) | pest or weed control at 1 ppm (Helicoverpa armigera)

Source: patent US8686044B2, “Amide derivative, pest control agent containing the amide derivative, and use of the amide derivative” (Mitsui Chemicals Agro, Inc., priority 2008, dated 2014)
